Measurements: ChEMBL document CHEMBL4610040, “Addressing hERG activity while maintaining favorable potency, selectivity and pharmacokinetic properties of PPARδ modulators” (Bioorg Med Chem Lett, 2020)
One block for each compound: values may come before it.

What was measured:
hERG (KCNH2) = hERG (KCNH2) (Homo sapiens, UniProt Q12809); assay: Inhibition of human ERG expressed in HEK293 cells at 10 uM by semi-automatic patch clamp assay relative to control; format: cell-based; conditions: HEK293 cells that express hERG
[1] = Oral bioavailability in CD-1 mouse at 3 mg/kg; format: ADME, organism-based; conditions: in vivo
[2] = AUC (0 to infinity) in CD-1 mouse at 1 mg/kg, iv or 3 mg/kg, po; format: ADME, organism-based; conditions: in vivo
[3] = biological target: T1, Peroxisome proliferator-activated receptor gamma (Homo sapiens, UniProt P37231); assay: Transactivation of GAL4-fused human PPARgamma expressed in African green monkey CV1 cells by luciferase reporter gene assay; format: cell-based, CV-1
T1 sequence (P37231 whole entry): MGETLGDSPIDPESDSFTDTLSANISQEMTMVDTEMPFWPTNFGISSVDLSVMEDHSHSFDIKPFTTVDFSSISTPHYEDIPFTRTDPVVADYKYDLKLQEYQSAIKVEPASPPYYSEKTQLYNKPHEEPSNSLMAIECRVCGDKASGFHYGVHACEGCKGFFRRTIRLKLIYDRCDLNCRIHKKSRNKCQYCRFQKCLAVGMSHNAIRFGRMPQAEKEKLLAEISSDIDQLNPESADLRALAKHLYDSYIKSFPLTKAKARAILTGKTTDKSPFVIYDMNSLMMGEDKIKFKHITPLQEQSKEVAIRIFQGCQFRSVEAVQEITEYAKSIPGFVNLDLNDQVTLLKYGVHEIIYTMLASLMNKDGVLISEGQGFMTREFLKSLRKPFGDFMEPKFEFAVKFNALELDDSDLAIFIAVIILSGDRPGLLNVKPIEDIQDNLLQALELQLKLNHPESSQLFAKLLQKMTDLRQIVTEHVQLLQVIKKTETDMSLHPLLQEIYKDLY

[4] = Elimination half life in CD-1 mouse at 1 mg/kg, iv or 3 mg/kg, po; format: ADME, organism-based; conditions: in vivo, read-out: beta t1/2 (converted)
[5] = biological target: T2, Peroxisome proliferator-activated receptor alpha (Homo sapiens, UniProt Q07869); assay: Transactivation of GAL4-fused human PPARalpha expressed in African green monkey CV1 cells by luciferase reporter gene assay; format: cell-based, CV-1
T2 sequence (Q07869 whole entry): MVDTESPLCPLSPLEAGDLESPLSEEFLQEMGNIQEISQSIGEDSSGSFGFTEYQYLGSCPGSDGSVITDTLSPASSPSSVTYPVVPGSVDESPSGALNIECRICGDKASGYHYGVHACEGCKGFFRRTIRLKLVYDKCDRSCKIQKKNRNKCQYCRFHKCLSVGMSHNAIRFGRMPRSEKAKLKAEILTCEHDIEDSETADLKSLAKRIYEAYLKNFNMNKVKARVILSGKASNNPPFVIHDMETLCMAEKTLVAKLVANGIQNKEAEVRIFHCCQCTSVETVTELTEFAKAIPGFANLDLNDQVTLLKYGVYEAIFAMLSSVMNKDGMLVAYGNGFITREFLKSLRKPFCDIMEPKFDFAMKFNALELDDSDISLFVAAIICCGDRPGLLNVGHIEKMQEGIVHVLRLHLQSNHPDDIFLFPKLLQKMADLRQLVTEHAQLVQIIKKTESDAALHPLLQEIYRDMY

[6] = biological target: Voltage-gated inwardly rectifying potassium channel KCNH2 (Homo sapiens, UniProt Q12809); assay: Inhibition of human ERG expressed in HEK293 cells by semi-automatic patch clamp assay; format: cell-based
Voltage-gated inwardly rectifying potassium channel KCNH2, sequence (Q12809 whole entry): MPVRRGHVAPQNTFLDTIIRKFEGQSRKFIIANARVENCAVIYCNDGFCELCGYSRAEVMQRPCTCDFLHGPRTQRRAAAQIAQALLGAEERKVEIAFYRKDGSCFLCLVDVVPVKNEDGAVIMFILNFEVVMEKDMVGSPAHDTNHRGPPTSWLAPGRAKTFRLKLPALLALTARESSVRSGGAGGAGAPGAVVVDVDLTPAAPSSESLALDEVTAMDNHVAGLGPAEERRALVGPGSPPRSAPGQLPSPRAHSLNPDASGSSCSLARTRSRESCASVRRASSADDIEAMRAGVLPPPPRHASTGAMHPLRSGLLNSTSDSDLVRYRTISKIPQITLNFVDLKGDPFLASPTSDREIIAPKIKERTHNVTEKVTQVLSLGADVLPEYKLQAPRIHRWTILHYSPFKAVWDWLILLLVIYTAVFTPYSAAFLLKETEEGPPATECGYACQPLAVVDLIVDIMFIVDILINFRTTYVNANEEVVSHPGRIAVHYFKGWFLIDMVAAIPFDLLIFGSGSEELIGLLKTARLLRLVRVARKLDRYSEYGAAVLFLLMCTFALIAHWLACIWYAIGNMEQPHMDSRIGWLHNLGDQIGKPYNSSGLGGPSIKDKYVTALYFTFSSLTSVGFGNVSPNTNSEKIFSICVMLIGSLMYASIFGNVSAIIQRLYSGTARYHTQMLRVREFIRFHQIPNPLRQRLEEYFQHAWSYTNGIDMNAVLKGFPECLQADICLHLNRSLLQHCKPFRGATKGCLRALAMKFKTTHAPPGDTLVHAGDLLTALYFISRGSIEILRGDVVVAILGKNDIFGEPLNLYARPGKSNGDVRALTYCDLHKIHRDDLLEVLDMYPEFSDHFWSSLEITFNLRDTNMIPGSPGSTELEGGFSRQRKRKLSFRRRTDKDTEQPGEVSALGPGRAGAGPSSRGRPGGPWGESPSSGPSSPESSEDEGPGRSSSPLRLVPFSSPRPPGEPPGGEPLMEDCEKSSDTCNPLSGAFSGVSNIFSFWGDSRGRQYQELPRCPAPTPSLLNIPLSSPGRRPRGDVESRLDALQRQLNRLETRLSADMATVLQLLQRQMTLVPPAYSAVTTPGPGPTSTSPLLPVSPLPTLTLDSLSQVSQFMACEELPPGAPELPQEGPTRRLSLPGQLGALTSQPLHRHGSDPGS

hERG (KCNH2), sequence (Q12809 whole entry): as above

SMILES: CN(Cc1ccccc1OCCCCCC(=O)O)C(=O)c1ccc(-c2ccco2)cc1
inhibition at 10 µM (hERG (KCNH2)): < 15%

SMILES: C/C(=C\COc1ccccc1Cc1sc(C)nc1-c1ccc2oc(C)cc2c1)CCC(=O)O
inhibition at 10 µM (hERG (KCNH2)): 14%

SMILES: Cc1cc2cc(-c3ncc(C)n3Cc3ccccc3OCCCCCC(=O)O)ccc2o1
inhibition at 10 µM (hERG (KCNH2)): 51%

SMILES: Cc1cnc(-c2ccc(C#N)cc2)n1Cc1ccccc1OCCC[C@@H](C)CC(=O)O
inhibition at 10 µM (hERG (KCNH2)): 15%

bioavailability [1]: 100%
AUC(0-inf) [2]: 3880 ng·h/mL
EC50 [3]: > 100 µM
half-life [4]: 3.5 h
EC50 [5]: > 100 µM
SMILES: C[C@H](CCCOc1ccccc1Cn1c(Cl)cnc1-c1ccc(C(F)(F)F)cc1)CC(=O)O

SMILES: Cc1cnc(-c2ccc(-c3ccco3)cc2)n1Cc1ccccc1OCCCCCC(=O)O
IC50 [6]: 5.5 µM

SMILES: Cc1nc(-c2cc(F)c(-c3ccco3)c(F)c2)c(Cc2ccccc2OCCC[C@@H](C)CC(=O)O)s1
inhibition at 10 µM (hERG (KCNH2)): 4%

SMILES: C/C(=C\COc1ccccc1Cc1c(C)cnn1-c1ccc(C(F)(F)F)cc1)CCC(=O)O
inhibition at 10 µM (hERG (KCNH2)): 4%

AUC(0-inf) [2]: 14700 ng·h/mL
EC50 [3]: > 100 µM
EC50 [5]: > 100 µM
SMILES: C[C@H](CCCOc1ccccc1Cn1c(C(F)(F)F)cnc1-c1ccc(C#N)cc1)CC(=O)O
inhibition at 10 µM (hERG (KCNH2)): 4%

bioavailability [1]: 70%
AUC(0-inf) [2]: 6960 ng·h/mL
EC50 [3]: > 100 µM
half-life [4]: 5.8 h
EC50 [5]: > 100 µM
SMILES: C[C@H](CCCOc1ccccc1Cn1c(C(F)(F)F)cnc1-c1ccc(C(F)(F)F)cc1)CC(=O)O
inhibition at 10 µM (hERG (KCNH2)): 5.7%

SMILES: Cc1cnc(-c2ccc(OC(F)(F)F)cc2)n1Cc1ccccc1OCCC[C@@H](C)CC(=O)O
IC50 [6]: 10 µM
